These results are taken from US20120010557A1, “Drug Delivery System for Use in the Treatment of Vascular and Vessel-Related Pathologies” (priority 2009, published 2012).

The conditions of data set [1]: not told; cited from earlier work.
The test system of data set [2] is laser-induced thrombus in hamster dorsal skin fold venules. In words: Laser-induced thrombosis in hamster dorsal skin fold venules, intravital fluorescence microscopy. Type of data set: in vivo. The note with it: infused. From the text: In the research that led to the invention it was shown that, in PWS vascular analogues (hamster dorsal skin fold venules), the photothermal response is ensued by a hemodynamic response, namely the initiation of primary and secondary hemostasis following laser-induced endovascular damage. There is increasing evidence that misfolded proteins and corollary fibrillar structures referred to as amyloid have the propensity to activate platelets (Herczenik E et al. Arterioscler Thromb Vasc Biol. 2007 July; 27(7):1657-65) and the contact activation pathway (Maas C et al. J Clin Invest. 2008 September; 118(9):3208-18). Inasmuch as thermal coagula are comprised of thermally denatured (i.e., misfolded) proteins, these laser-induced lesions may constitute the basis for the initiation of primary and secondary hemostasis in addition to a thermally afflicted endothelium. […]
FIG. 1: Aggregation of 5,6-carboxyfluorescein (CF)-labeled platelets at the site of laser-induced damage in hamster dorsal skin fold venules as visualized by intravital fluorescence microscopy without (A-F) and with (G-L) priorly infused heparin (Hep). […]

For the molecule `CC=CC=CC(=O)OCCCCCCCCCC(=O)OC[C@H](COP(=O)([O-])OCC[N+](C)(C)C)OC(=O)CCCCCCCCCOC(=O)C=CC=CC` [bis-SorbPC, 1,2-bis[10-(2′,4′-hexadienoloxy)decanonyl]-sn-glycero-3-phosphocholine], the “Increase in bilayer permeability” value in data set [1] is “up to 28.000 fold”. Regarding heparin, in data set [2], the “Effect on laser-induced thrombus formation / lesional size” value was “impeding effect on the lesional size”.
